We go through three molecules from US20170000784A1, “Autophagy Inhibitors” (priority 2013, published 2017).

Converted amounts (≈) assume the structure as drawn.

Experiment [1] deals with UACC-903 melanoma cell line. Kind of experiment: Cell viability (IC50) screen, CellTiter Glo, UACC-903. The experiment is classed as cell-based. As to conditions: Homo sapiens; UACC-903 cell viability, CellTiter Glo; read-out: IC50. As for the experimental part: (§1) U2OS cells were seeded at 500 cells per well in 5A McCoy's with 10% FBS in 96-well clear bottom, black-walled tissue culture plates. All melanoma cell lines (A375, UACC-91, UACC-257, UACC-502, UACC-903, UACC-1308, UACC-1940, UACC-2534, and UACC-3291) were seeded at 5,000 cells per well in RPMI 1640 with 10% FBS in 96-well clear bottom, black-walled tissue culture plates. After 24 hour incubation, cells were treated with VATG compounds in triplicate with a 10-point half log dose response from […] for 24 and 48 hours. Medium was removed and 2× CellTiter Glo (Promega, G7571) reagent mixed 1:1 with Opti-MEM (Invitrogen, 31985062) was added at 100 μL per well and incubated at room temperature for 15 minutes while rocking. 75 μL per well was moved to a white-walled 96-well plate and luminescence quantified using the 96 LUM program on an EnVision plate reader (PerkinElmer) and exported for analysis. All triplicate data points were averaged and luminescent readings for each treatment were normalized to vehicle control for change in viability. Dose response curves were input into SigmaPlot for IC50 calculations (Systat Software Inc).

Experiment [2] concerns metastatic melanoma with BRAF V600E mutation. As to conditions: metastatic melanoma patients with the mutation; in one study; cited from earlier work.
The test system of experiment [3] is UACC-91 melanoma cell line. Kind of experiment: Cell viability (IC50) screen, CellTiter Glo, UACC-91. Conditions: Homo sapiens; UACC-91 cell viability, CellTiter Glo; read-out: IC50. In kind it is cell-based. The protocol:
as §1

Experiment [4] deals with UACC-3291 melanoma cell line. The experiment is described as follows: Cell viability (IC50) screen, CellTiter Glo, UACC-3291. In kind it is cell-based. As to conditions: Homo sapiens; UACC-3291 cell viability, CellTiter Glo; read-out: IC50. As for the experimental part: as §1
In another experiment the test system is A375 cells. In kind it is cell-based, human. As to conditions: A375 soft agar. The text has this: After three weeks of treatment, cells were fixed and stained in 1% paraformaldehyde in 1×PBS containing 0.005% crystal violet overnight. Cells were destained with multiple washes of 1×PBS to remove background staining. Plates were scanned and images quantified using Nikon NIS Elements software. To quantify, each image was sharpened and an ROI of equal size drawn around each well. Intensity thresholds were set to include all pixels equal to or greater than the intensity of the mean background fluorescence. Objects within the threshold of each ROI were quantified using an automated object count function and exported for analysis. Object number was quantified to denote total colony formation. […] Additivity was established when the expected viability determined by the Bliss independence model was equal to the actual viability. This model was chosen since the effects of both compounds are mutually non-exclusive and follow first order Michaelis-Menten kinetics.
To determine if the effects of each combination were more than, less than, or equal to additive, predictions for additivity were made using the Bliss Independence (Table 7), as disclosed in Yan H, Zhang B, Li S, Zhao Q. A formal model for analyzing drug combination effects and its application in TNF-alpha-induced NFkappaB pathway. BMC Syst. […] Drug combination studies and their synergy quantification using the Chou-Talalay method.

A further experiment has as its system A375 melanoma cell line. Kind of experiment: Cell viability (IC50) screen, CellTiter Glo, A375. The experiment is classed as cell-based. Conditions: Homo sapiens, A-375; A375 cell viability, CellTiter Glo, 48 hours; read-out: IC50. The protocol:
as §1

Experiment [5] deals with UACC-502 melanoma cell line. The experiment is described as follows: Cell viability (IC50) screen, CellTiter Glo, UACC-502. The experiment is classed as cell-based. As to conditions: Homo sapiens; UACC-502 cell viability, CellTiter Glo; read-out: IC50. As for the experimental part: as §1
In experiment [6] the test system is UACC-257 melanoma cell line. The experiment is described as follows: Cell viability (IC50) screen, CellTiter Glo, UACC-257. The experiment is classed as cell-based. Conditions: Homo sapiens; UACC-257 cell viability, CellTiter Glo; read-out: IC50. As for the experimental part:
as §1

The subject of experiment [7] is UACC-2534 melanoma cell line. The experiment is described as follows: Cell viability (IC50) screen, CellTiter Glo, UACC-2534. The experiment is classed as cell-based. Conditions: Homo sapiens; UACC-2534 cell viability, CellTiter Glo; read-out: IC50. As for the experimental part:
as §1

Experiment [8] deals with phospho-ERK1/2 and LC3-II in A375 cells. Kind of experiment: Western blot of A375 cells treated with PLX-4032 with and without autophagy inhibitors. The experiment is classed as cell-based, human. The protocol:
For Western blotting, U2OS cells were seeded in 10 cm plates in 5A McCoy's with 10% FBS at 1×10^6 cells per plate. All melanoma lines were seeded in 10 cm plates in RPMI 1640 with 10% FBS at 1×10^6 cells per plate. After 24 hours, cells were treated with CQ, QN, Example 27, or Example 7 in a dose response of 0.3 μM, 1 μM, 3 μM, 10 μM, and 30 μM for three hours. A375 were treated with PLX-4032 (Selleck Chemicals, S1267) at 10 nM, 100 nM, and 1 μM for three hours with and without CQ, QN, Example 7, and Example 27 at 3 μM and 30 μM. After treatment, cells were lysed [10 mM KPO4, 1 mM EDTA, 10 mM MgCl2, 5 mM EGTA, 50 mM bis-glycerophosphate, 0.5% NP40, 0.1% Brij35, 0.1% sodium deoxycholate, 1 mM NaVO4, 5 mM NaF, 2 mM DTT, and complete protease inhibitors (Sigma, P8340-5 mL)] and 50 μg of protein was resolved by SDS-PAGE. Proteins were transferred to PVDF membranes and probed with primary antibodies [LC3 (Sigma, L7543-200UL), anti-α-tubulin (Sigma, T6199), cathepsin B (Santa Cruz, sc-13985)] for 16 hours at 4° C. followed by a secondary antibody [HRP-linked rabbit or mouse IgG (GE Healthcare, NA934 or NA931) or Odyssey IRDye 680CW Goat anti-rabbit IgG (LI-COR, 926-32221) or IRDye 800CW Goat anti-mouse IgG (LI-COR, 926-32210)] for 1 hour at room temperature. Proteins were detected with enhanced chemiluminescence or using the Odyssey machine and quantified (FIGS. 12, 15, 16, 7 and 11).
Since the melanoma cell lines are capable of undergoing autophagy and sensitive to autophagy inhibition, the inventors questioned whether autophagy inhibitors could improve the efficacy of, or sensitize melanoma cells against cytotoxic and chemotherapeutic drugs for advanced metastatic melanoma. In one example, PLX-4032 drug “vemurafenib” (marketed as ZELBORAF®) is a B-Raf enzyme inhibitor developed by Plexxikon and Genentech for the treatment of late-stage melanoma. The name “vemurafenib” comes from V600E mutated BRAF inhibition. PLX-4032, selectively targets the V600E mutant BRAF and it is unknown how this drug may affect autophagic flux. To determine the effects of the drug on autophagic flux, the present inventors performed experiments to determine whether PLX-4032 induces autophagy, as has been observed with other targeted agents. In some embodiments, the accumulation of LC3-II in response to lysosome inhibition was measured by quantitative Western blotting, as described above. A375 cells were treated with PLX-4032 (10 nM, 100 nM, and 1 μM) for three hours in the presence or absence of CQ.

Experiment [9] deals with UACC-1940 melanoma cell line. The experiment is described as follows: Cell viability (IC50) screen, CellTiter Glo, UACC-1940. In kind it is cell-based. As to conditions: Homo sapiens; UACC-1940 cell viability, CellTiter Glo; read-out: IC50. The protocol: as §1
The test system of experiment [10] is UACC-1308 melanoma cell line. The experiment is described as follows: Cell viability (IC50) screen, CellTiter Glo, UACC-1308. In kind it is cell-based. Conditions: Homo sapiens; UACC-1308 cell viability, CellTiter Glo; read-out: IC50. The protocol:
as §1

In experiment [11] the test system is Tumor cell lines (H292, HCT116, A375, HCC1569, A498, N87, UACC1093, and UACC647). Kind of experiment: Single agent tumor cell viability (ATP luminescence, 72 hours). In kind it is cell-based. Conditions: cell lines tested; 72 hours exposure; FIGS. 1A, 1B. As for the experimental part:
(§2) Tumor cell lines (H292, HCT116, A375, HCC1569, A498, N87, UACC1093, and UACC647) were cultured in RPMI 1640 supplemented with 5% fetal bovine serum and housed in a 5% CO2 Incubator at 37° C.
(§3) For single agent IC50 determination, cells were plated on a 96 well microplate and allowed 24 hours to adhere. Drugs were administered to the drug plate by the following: compound stock solutions (10 mM) were added to a drug plate where a 1:10 dilution was performed. Following the dilutions, 2 μl of test compound was transferred to the corresponding wells in the cell-containing 96-well plate with 198 μl of growth media. The compounds were tested over a range of 0.1 pM-100 μM for 72 hours. Following 72 hours of continuous exposure cell viability was determined by measuring the ATP activity using a commercially available cell viability assay kit. Luminescence intensity was used to relative drug activity compared to control wells and used to graphically determine the IC50.

Experiment [12] concerns PLX-4032 resistant melanoma cell lines UACC1093 and UACC647. The experiment is described as follows: Combination interaction tumor cell viability (ATP luminescence, 72 hours). In kind it is cell-based. The protocol:
as §2
as §3, with “combination interaction experiments,” for “single agent IC50 determination,”, “(20 mM) or combination agent stock solutions (20” for “(10”, “each VT-062 and standard agent” for “test compound”, “196” for “198”, “compound and combination agent was concurrently” for “compounds were”, “IC50 of combination.” for “IC50.”

For experiment [13], the system named is A375 Human melanoma tumor cells. The experiment is described as follows: Human tumor xenograft study. In kind it is in vivo. As to conditions: A375 xenograft in female mice; orally, daily for 21 days; after 25 days. The protocol: Female mice were inoculated subcutaneously in the right flank with 0.1 ml of a 50% RPMI/50% Matrigel™ (BD Biosciences, Bedford, Mass.) mixture containing a suspension of A375 Human melanoma tumor cells (approximately 5×10^6 cells/mouse).
When tumor reached approximately 130 mg, mice were randomized into treatment groups. Body weights were recorded when the mice were randomized and were taken twice per week (on Study Days 3 and 7 for each cycle) thereafter in conjunction with tumor measurements. Treatment began on the day of randomization. Example 10 was delivered orally in a vehicle consisting of 5% DMA, 10% propylene glycol, 20% PEG 400, and 65% sterile water. Example 10 was administered daily for 21 days.

Another experiment relates to L6 cells. Kind of experiment: In vitro cytotoxicity (LD50), Alamar Blue. In kind it is cell-based. Conditions: Rattus norvegicus, L6, read-out: L6 IC50. The protocol: L6 cells were seeded at 4×10^4 cells per well in a 96-well microtiter plate with each well containing 100 μL of RPMI 1640 medium, supplemented with 1% L-glutamine (200 mM), and 10% fetal bovine serum. Serial drug dilutions of Example 7 and Example 27 with seven 3-fold dilution steps, covering a range from 90 to 0.12 μg/mL, were prepared. After 72 h of incubation, the plates were inspected under an inverted microscope to ensure growth of the controls and sterile conditions. Alamar Blue (10 μL, 12.5 mg of resazurin dissolved in 100 mL of double-distilled water) was then added to each well, and the plates were incubated for another 2 hours. Plates were read with a microplate fluorometer using an excitation wavelength of 536 nm and an emission wavelength of 588 nm. Data were analyzed using microplate reader software. Podophyllotoxin was used as a standard (L6 IC50=0.04 μg/mL).
Next, the inventors wanted to determine if there is a therapeutic window for Example 7 and Example 27 in the treatment of P. falciparum. A therapeutic window for P. falciparum treatment is defined as a 10-fold differential between the in vitro cytotoxicity (LD50) within a mammalian cell line and the antimalarial IC50 (LD50/IC50) as defined by the MMV. Using the rat skeletal muscle L6 mammalian cell line, dose-response curves for Example 7 and Example 27 were performed and the LD50 determined.

On to `CCCS(=O)(=O)Nc1ccc(F)c(C(=O)c2c[nH]c3ncc(-c4ccc(Cl)cc4)cc23)c1F` [PLX-4032, N-[3-[5-(4-chlorophenyl)-1H-pyrrolo[2,3-b]pyridine-3-carbonyl]-2,4-difluorophenyl]propane-1-sulfonamide, reference compound], for which the IC50 in experiment [1] was 69 µM; in experiment [3] it was 0.6 µM; in experiment [4], 1.5 µM; in the experiment on A375 melanoma cell line, 1 µM; in experiment [5], 4.2 µM; in experiment [6], 4 µM. Moreover, the IC50 in experiment [7] was 19.3 µM; in experiment [9], 3.3 µM; in [10], 0.6 µM. In addition, the response rate in experiment [2] was 70%. For the same molecule, in the experiment on A375 cells (single compound at IC10), the “Relative Growth Inhibition Compound B” value came out at 0.19. In addition, in the experiment with A375 cells (treated every other day for three weeks, single agent), the IC10 concentration stood at 0.0013 µM. For the same molecule, the “phosphorylation of ERK1/2 (oncogenic BRAF signaling)” value in experiment [8] (10 nM, 100 nM, 1 μM for three hours) is given as “reduced phosphorylation”. Besides, the “autophagy / basal autophagic flux (LC3-II)” value in experiment [8] (three hours, in the presence or absence of lysosome inhibitors) is “not significantly altered”.
As for `COc1ccc2nc3cc(Cl)ccc3c(NCCCCN(C)CC3CC3)c2c1` [Example 10, N^1-(6-Chloro-2-methoxyacridin-9-yl)-N^4-(cyclopropylmethyl)-N^4-methylbutane-1,4-diamine], the “tumor cell growth inhibition” value in [11] is given as “more than 75%”. In addition, the “increase in tumor growth inhibition in combination than Example 10 alone” value in [12] (in combination with PLX-4032, FIGS. 4A, 4C) is listed as 2.6-3.25%; in [12] (in combination with Temozolomide, FIGS. 4B, 4D), 7-30%. Moreover, the tumor growth inhibition result in [13] is recorded as “greater than 50%”.
On to `COc1cc([C@@H]2c3cc4c(cc3[C@H](O)[C@H]3COC(=O)[C@H]23)OCO4)cc(OC)c1OC` [Podophyllotoxin], for which, in the experiment on L6 cells, the IC50 was found to be 0.04 mg/L (≈ 0.0965 µM).
